{
  "source": "PubChem BioAssay AID328",
  "about": "(DTP/NCI, 2004)",
  "system": "BDF1 mice, P388 leukemia ip, median survival T/C",
  "experiment": "NCI In Vivo Anticancer Drug Screen. Data for tumor model P388 Leukemia (intraperitoneal) in B6D2F1 (BDF1) mice",
  "conditions": "endpoint: median survival time, higher = longer survival",
  "how_it_was_run": "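In tumour-bearing mice, survival after compound treatment is set against the vehicle group and given as a quotient.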",
  "key": {"[1]": {"conditions": "dose: 50.0 mg/kg/injection, schedule: Q01DX009 (ip), vehicle: saline with Tween-80"}, "[2]": {"conditions": "dose: 100.0 mg/kg/injection, schedule: Q01DX009 (ip), vehicle: saline with Tween-80"}, "[3]": {"conditions": "dose: 200.0 mg/kg/injection, schedule: Q01DX009 (ip), vehicle: saline with Tween-80"}},
  "note": "Several values for one entry are separate records, joined by “and”; a condition that tells them apart may be missing. Equal values may be shown once. Inconclusive results and toxic doses are left out.",
  "data": [
    {"smiles": "CC(C)(C)NCC(CN(CC(CNC(C)(C)C)C(=O)c1ccccc1)C(C)(C)C)C(=O)c1ccccc1", "note": "(stereo unspecified)", "values": [
      {"measurement": "T/C", "setting": "dose: 12.5 mg/kg/injection, schedule: Q04DX003 (ip), vehicle: Klucel (hydroxypropylcellulose) (HPC)", "value": "104 % of control"},
      {"measurement": "T/C", "setting": "dose: 25.0 mg/kg/injection, schedule: Q04DX003 (ip), vehicle: Klucel (hydroxypropylcellulose) (HPC)", "value": "104 % of control"},
      {"measurement": "T/C", "setting": "dose: 50.0 mg/kg/injection, schedule: Q04DX003 (ip), vehicle: Klucel (hydroxypropylcellulose) (HPC)", "value": "112 % of control"}
    ]},
    {"smiles": "OCC1OC(O)C(O)C(O)C1O", "note": "(stereo unspecified)", "values": [
      {"measurement": "T/C", "setting": "dose: 500.0 mg/kg/injection, schedule: Q01DX009 (ip), vehicle: saline", "value": "124 % of control"},
      {"measurement": "T/C", "setting": "dose: 500.0 mg/kg/injection, schedule: Q04DX003 (ip), vehicle: saline", "value": "100 % of control"},
      {"measurement": "T/C", "setting": "dose: 1000.0 mg/kg/injection, schedule: Q01DX009 (ip), vehicle: saline", "value": "117 % of control"},
      {"measurement": "T/C", "setting": "dose: 1000.0 mg/kg/injection, schedule: Q04DX003 (ip), vehicle: saline", "value": "100 % of control"},
      {"measurement": "T/C", "setting": "dose: 2000.0 mg/kg/injection, schedule: Q01DX009 (ip), vehicle: saline", "value": "120 % of control"},
      {"measurement": "T/C", "setting": "dose: 2000.0 mg/kg/injection, schedule: Q04DX003 (ip), vehicle: saline", "value": "100 % of control"},
      {"measurement": "T/C", "setting": "dose: 4000.0 mg/kg/injection, schedule: Q01DX009 (ip), vehicle: saline", "value": "100 % of control"},
      {"measurement": "T/C", "setting": "dose: 4000.0 mg/kg/injection, schedule: Q04DX003 (ip), vehicle: saline", "value": "102 % of control"}
    ]},
    {"smiles": "COc1cc2ccc3c(c2cc1OC)N(C)C(OC)c1cc2c(cc1-3)OCO2", "note": "(stereo unspecified)", "values": [
      {"measurement": "T/C", "setting": "dose: 20.0 mg/kg/injection, schedule: Q01DX009 (ip), vehicle: water", "value": "104 % of control"},
      {"measurement": "T/C", "setting": "dose: 240.0 mg/kg/injection, schedule: Q01DX009 (ip), vehicle: water", "value": "95 % of control"}
    ]},
    {"smiles": "C1O[C@@H]1[C@H]1CO1", "values": [
      {"measurement": "T/C", "setting": "dose: 25.0 mg/kg/injection, schedule: Q01DX009 (ip), vehicle: saline", "value": "150 % of control"},
      {"measurement": "T/C", "setting": "dose: 37.5 mg/kg/injection, schedule: Q01DX009 (ip), vehicle: saline", "value": "186 % of control"}
    ]},
    {"smiles": "CC1(C)OC2C=CC3C(OC(=O)C3(C)Cl)C2O1", "note": "(stereo unspecified)", "values": [
      {"measurement": "T/C", "setting": "dose: 50.0 mg/kg/injection, schedule: Q04DX002 (ip), vehicle: saline with Tween-80", "value": "112 % of control and 114 % of control"},
      {"measurement": "T/C", "setting": "dose: 100.0 mg/kg/injection, schedule: Q04DX002 (ip), vehicle: saline with Tween-80", "value": "99 % of control and 103 % of control and 104 % of control"},
      {"measurement": "T/C", "setting": "dose: 200.0 mg/kg/injection, schedule: Q04DX002 (ip), vehicle: saline with Tween-80", "value": "103 % of control and 104 % of control"},
      {"measurement": "T/C", "setting": "dose: 400.0 mg/kg/injection, schedule: Q04DX002 (ip), vehicle: saline with Tween-80", "value": "99 % of control and 101 % of control (2×)"}
    ]},
    {"smiles": "O=C(Nc1ccc(F)cc1)c1ccc(C(=O)Nc2ccc(F)cc2)cc1", "values": [
      {"measurement": "T/C", "setting": "dose: 100.0 mg/kg/injection, schedule: Q04DX003 (ip), vehicle: saline with Tween-80", "value": "108 % of control"},
      {"measurement": "T/C", "setting": "dose: 200.0 mg/kg/injection, schedule: Q04DX003 (ip), vehicle: saline with Tween-80", "value": "91 % of control"},
      {"measurement": "T/C", "setting": "dose: 400.0 mg/kg/injection, schedule: Q04DX003 (ip), vehicle: saline with Tween-80", "value": "91 % of control"}
    ]},
    {"smiles": "NC(Cc1ccc(O)cc1)C(=O)N/N=C/c1ccc(N(CCCl)CCCl)cc1", "note": "(stereo unspecified)", "values": [
      {"measurement": "T/C", "setting": "dose: 18.0 mg/kg/injection, schedule: Q04DX003 (ip), vehicle: Klucel (hydroxypropylcellulose) (HPC)", "value": "108 % of control"},
      {"measurement": "T/C", "setting": "dose: 26.0 mg/kg/injection, schedule: Q04DX003 (ip), vehicle: Klucel (hydroxypropylcellulose) (HPC)", "value": "116 % of control"},
      {"measurement": "T/C", "setting": "dose: 60.0 mg/kg/injection, schedule: Q04DX003 (ip), vehicle: Klucel (hydroxypropylcellulose) (HPC)", "value": "165 % of control"},
      {"measurement": "T/C", "setting": "dose: 90.0 mg/kg/injection, schedule: Q04DX003 (ip), vehicle: Klucel (hydroxypropylcellulose) (HPC)", "value": "169 % of control"},
      {"measurement": "T/C", "setting": "dose: 100.0 mg/kg/injection, schedule: Q04DX003 (ip), vehicle: Klucel (hydroxypropylcellulose) (HPC)", "value": "165 % of control"},
      {"measurement": "T/C", "setting": "dose: 133.0 mg/kg/injection, schedule: Q04DX003 (ip), vehicle: Klucel (hydroxypropylcellulose) (HPC)", "value": "170 % of control"},
      {"measurement": "T/C", "setting": "dose: 200.0 mg/kg/injection, schedule: Q04DX003 (ip), vehicle: Klucel (hydroxypropylcellulose) (HPC)", "value": "192 % of control and 204 % of control"},
      {"measurement": "T/C", "setting": "dose: 300.0 mg/kg/injection, schedule: Q04DX003 (ip), vehicle: Klucel (hydroxypropylcellulose) (HPC)", "value": "166 % of control"}
    ]},
    {"smiles": "Cc1c2ccnc(-c3ccccc3)c2cc2c1[nH]c1ccccc12", "values": [
      {"measurement": "T/C", "setting": "[1]", "value": "102 % of control"},
      {"measurement": "T/C", "setting": "[2]", "value": "100 % of control"},
      {"measurement": "T/C", "setting": "[3]", "value": "102 % of control"}
    ]},
    {"smiles": "CNc1cccnc1/C=N/NC(N)=S", "values": [
      {"measurement": "T/C", "setting": "[1]", "value": "194 % of control"},
      {"measurement": "T/C", "setting": "[2]", "value": "181 % of control"}
    ]},
    {"smiles": "Cc1c(-c2ccc(C(=N)N)cc2)oc(-c2ccc(C(=N)N)cc2)c1C", "values": [
      {"measurement": "T/C", "setting": "dose: 3.13 mg/kg/injection, schedule: Q01DX009 (ip), vehicle: saline with Tween-80", "value": "109 % of control"}
    ]},
    {"smiles": "Clc1nn2nnnc2c2ccccc12", "values": [
      {"measurement": "T/C", "setting": "dose: 10.0 mg/kg/injection, schedule: Q01DX009 (ip), vehicle: saline with Tween-80", "value": "102 % of control"},
      {"measurement": "T/C", "setting": "dose: 20.0 mg/kg/injection, schedule: Q01DX009 (ip), vehicle: saline with Tween-80", "value": "122 % of control"},
      {"measurement": "T/C", "setting": "dose: 37.5 mg/kg/injection, schedule: Q01DX009 (ip), vehicle: saline with Tween-80", "value": "91 % of control"}
    ]},
    {"smiles": "COc1cc([N+](=O)[O-])ccc1NC(=O)NCc1ccccc1", "values": [
      {"measurement": "T/C", "setting": "[1]", "value": "95 % of control"},
      {"measurement": "T/C", "setting": "[2]", "value": "98 % of control"},
      {"measurement": "T/C", "setting": "[3]", "value": "98 % of control"},
      {"measurement": "T/C", "setting": "dose: 400.0 mg/kg/injection, schedule: Q01DX009 (ip), vehicle: saline with Tween-80", "value": "104 % of control"}
    ]},
    {"smiles": "Cc1ccccc1P(=O)(c1ccccc1)c1ccccc1C", "values": [
      {"measurement": "T/C", "setting": "dose: 25.0 mg/kg/injection, schedule: Q01DX009 (ip), vehicle: saline with Tween-80", "value": "90 % of control"},
      {"measurement": "T/C", "setting": "[1]", "value": "96 % of control"},
      {"measurement": "T/C", "setting": "[2]", "value": "87 % of control"}
    ]}
  ]
}
